In data set [1] the target is T1, CtTrpAB (Chlamydia trachomatis, UniProt O84172).
T1 sequence (O84172 1-392): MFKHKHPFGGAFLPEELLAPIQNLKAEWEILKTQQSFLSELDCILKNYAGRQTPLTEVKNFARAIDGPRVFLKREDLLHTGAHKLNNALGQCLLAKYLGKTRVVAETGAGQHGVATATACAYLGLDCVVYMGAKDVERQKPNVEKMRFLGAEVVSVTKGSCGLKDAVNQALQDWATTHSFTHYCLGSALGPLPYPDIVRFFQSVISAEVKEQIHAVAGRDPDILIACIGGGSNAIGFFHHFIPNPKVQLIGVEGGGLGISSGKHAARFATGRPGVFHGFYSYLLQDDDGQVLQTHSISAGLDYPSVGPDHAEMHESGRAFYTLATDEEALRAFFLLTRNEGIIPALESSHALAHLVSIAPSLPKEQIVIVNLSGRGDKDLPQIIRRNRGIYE
T1 sequence (O84173 1-253 partner): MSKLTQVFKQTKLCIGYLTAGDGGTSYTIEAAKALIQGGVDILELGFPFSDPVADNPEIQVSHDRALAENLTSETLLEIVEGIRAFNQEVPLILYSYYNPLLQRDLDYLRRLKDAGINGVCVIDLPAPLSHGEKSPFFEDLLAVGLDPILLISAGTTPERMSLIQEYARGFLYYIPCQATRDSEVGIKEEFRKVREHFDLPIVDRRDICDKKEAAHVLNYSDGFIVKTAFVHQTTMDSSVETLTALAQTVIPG
Nature of the data set: X-ray crystal structure, […] Å. The following applies: covalent adduct to beta Lys84 in TrpB; sulfate in the serine site. The class given is binding.

Substrate in data set [2]: c1ccc2[nH]ccc2c1
Nature of the data set: purified protein. The class given is biochemical, Chlamydia trachomatis. The following applies: L-Ser co-substrate, 40 uM PLP, 100 mM KCl, pH 8.0, room temperature.

The kcat is the maximal rate divided by the concentration of active sites.

As for `Cc1ncc(COP(=O)(O)O)c(C=O)c1O` [pyridoxal 5′-phosphate], the “X-ray crystal structure, 2.42 Å” value in data set [1] was “The CtTrpB active site, marked by the PLP adduct to βLys84”.

B1: CtTrpAB (Chlamydia trachomatis D/UW-3/CX) (protein)
chain: MFKHKHPFGGAFLPEELLAPIQNLKAEWEILKTQQSFLSELDCILKNYAGRQTPLTEVKNFARAIDGPRVFLKREDLLHTGAHKLNNALGQCLLAKYLGKTRVVAETGAGQHGVATATACAYLGLDCVVYMGAKDVERQKPNVEKMRFLGAEVVSVTKGSCGLKDAVNQALQDWATTHSFTHYCLGSALGPLPYPDIVRFFQSVISAEVKEQIHAVAGRDPDILIACIGGGSNAIGFFHHFIPNPKVQLIGVEGGGLGISSGKHAARFATGRPGVFHGFYSYLLQDDDGQVLQTHSISAGLDYPSVGPDHAEMHESGRAFYTLATDEEALRAFFLLTRNEGIIPALESSHALAHLVSIAPSLPKEQIVIVNLSGRGDKDLPQIIRRNRGIYE
As to B1, the kcat in data set [2] is 0.352 s⁻¹.

The record behind these values is article PMC8376405 (Protein Science : A Publication of the Protein Society, 2021).
